The results in this text go back to ChEMBL document CHEMBL5325500, “Mannich Base PIP-199 Is a Chemically Unstable Pan-Assay Interference Compound” (J Med Chem, 2023).

Each structure is given as a SMILES string. Active and inactive are the calls of the source. No cut-off for these calls is given here.

The species named for data set [1] is Homo sapiens. As to the kind of experiment: Binding affinity to biotinylated RMI1/RMI2 (unknown origin) at 12.5 to 200 uM associated for 60 secs and dissociated for 60 secs by SPR analysis. To be noted: dose 12.5-200 µM, time 120.0 sec.
The species entered for data set [2] is Homo sapiens. The data set is described as follows: Displacement of N-terminal TAMRA-labeled SRDLFSVTFDLGFCSPDSDD-NH2 tracer from RMI1/RMI2 (unknown origin) in 50 mM Tris buffer pH 8.8 at 125 uM incubated for 1 hr by fluorescence polarization assay.
The nature of data set [3]: Stability in phosphate buffer at pH 6 assessed as drug degradation at 250 uM measured after 1.5 hrs by 1H-NMR analysis. To be noted: read-out: Drug degradation. It is filed as physicochemical.
Data set [4] can be described thus: Stability of compound in H2O/MeCN with 0.1% formic acid assessed as (2-phenyl-1H-indol-3-yl)(pyridin-2-yl)methanol formation by measuring retention time at 250 uM measured after 1.5 hrs by LC-MS analysis. Format: physicochemical.
Data set [5] in a line: Stability of compound in H2O/MeCN with 0.1% formic acid assessed as retention time of intact compound at 250 uM measured after 1.5 hrs by LC-MS analysis. It is filed as physicochemical.
A short description of data set [6]: Stability in phosphate buffer at pH 7 to 8 assessed as drug degradation at 250 uM measured after 1.5 hrs by 1H-NMR analysis. Format: physicochemical. Particulars: pH 7, 1.5 h.
A short description of data set [7]: Stability of compound in 50 mM phosphate buffer at pH 6 to 8 assessed as drug decomposition at 250 uM measured after 1.5 hrs by NMR analysis. It is filed as physicochemical. To be noted: pH 6, 1.5 h.
Data set [8] can be described thus: Stability of compound in 50 mM Tris buffer at pH 8.8 assessed as drug decomposition at 250 uM measured after 1.5 hrs by NMR analysis. It is filed as physicochemical. Particulars: pH 8.8, 1.5 h.
The nature of data set [9]: Stability in potassium phosphate buffer at pH 6 to 8 assessed as drug degradation at 250 uM measured after 1.5 hrs by 1H-NMR analysis. It is filed as physicochemical. Particulars: pH 6, 1.5 h.
Data set [10] in a line: Stability of compound in H2O/MeCN with 0.1% formic acid assessed as formation of 2-phenyl-3-(pyridin-2-ylmethylene)-3H-indole 1-oxide by measuring retention time at 250 uM measured after 1.5 hrs by LC-MS analysis. Format: physicochemical.
The species named for data set [11] is Homo sapiens. As to the kind of experiment: Displacement of N-terminal TAMRA-labeled SRDLFSVTFDLGFCSPDSDD-NH2 tracer from RMI1/RMI2 (unknown origin) in 10 mM Tris buffer pH 8.8 at 125 uM incubated for 1 hr by fluorescence polarization assay.
Data set [12] is described as follows: Stability of compound in 10 to 50 mM HEPES buffer at pH 7.4 assessed as drug decomposition at 250 uM measured after 1.5 hrs by NMR analysis. Format: physicochemical. Particulars: pH 7.4, 1.5 h.
A short description of data set [13]: Stability of compound in 10 mM Tris buffer at pH 8.8 assessed as drug decomposition at 250 uM measured after 1.5 hrs by NMR analysis. Format: physicochemical. To be noted: pH 8.8, 1.5 h.
Data set [14] can be described thus: Stability of compound in H2O/MeCN with 0.1% formic acid assessed as elimination of piperazine at 250 uM measured after 1.5 hrs by LC-MS analysis. It is filed as physicochemical.
Data set [15] is described as follows: Stability of compound in phosphate buffer at pH 7 to 8 assessed as formation of 2-phenyl-3-(pyridin-2-ylmethylene)-3H-indole 1-oxide at 50 uM measured every 0.1 secs for 3 mins by UV-Vis spectroscopy. To be noted: pH 7, 2.778e-05 h, time 0.1 sec. It is filed as physicochemical.
A short description of data set [16]: Solubility of compound assessed as precipitation at >250 uM. Format: physicochemical.
Data set [17] can be described thus: Stability of compound in 10 to 50 mM NH4Cl buffer at pH 8.8 assessed as drug decomposition at 250 uM measured after 1.5 hrs by NMR analysis. It is filed as physicochemical. To be noted: pH 8.8, 1.5 h.
Data set [18] is described as follows: Stability of compound in H2O/MeCN with 0.1% formic acid assessed as isomer of nitrone formation by measuring retention time at 250 uM measured after 1.5 hrs by LC-MS analysis. It is filed as physicochemical.
Data set [19] can be described thus: Stability of compound in H2O/MeCN with 0.1% formic acid assessed as formation of 2-phenyl-3-(pyridin-2-ylmethylene)indoline-1,2-diol by measuring retention time at 250 uM measured after 1.5 hrs by LC-MS analysis. Format: physicochemical.

As for `c1ccc(-c2[nH]c3ccccc3c2C(c2ccccn2)N2CCCCC2)cc1` (stereo not drawn), the result in the data set filed under Homo sapiens [1] and in the data set filed under Homo sapiens [2] was inactive.
With `CCOC(=O)N1CCN(C(c2ccccc2)c2c(-c3ccccc3)[nH]c3ccccc23)CC1` (stereo not drawn), the result in the data set filed under Homo sapiens [2] was inactive.
Take `CCOC(=O)N1CCN(C(c2ccccn2)c2ccc3ccccc3c2O)CC1` (stereo not drawn): the outcome in the data set filed under Homo sapiens [1] and in the data set filed under Homo sapiens [2] was inactive.
As to `CCOC(=O)N1CCN(C(c2ccccn2)c2c(-c3ccccc3)[nH]c3ccccc23)CC1` (stereo not drawn), the result in the data set filed under Homo sapiens [1] and in the data set listed under Homo sapiens [2] was inactive. For the same molecule, the degraded at 1.5 h, 250 µM in [3] came out at 50%. Further, the Retention_time in [4] was 7.3 min; in data set [5], 8.7 min. Moreover, in [6], the Stability entry is reported as “Stable”.
Regarding `CCOC(=O)N1CCN(C(c2ccccn2)c2c(-c3ccccc3)n(O)c3ccccc23)CC1` (stereo not drawn), the Stability entry in data set [7] is listed as “Unstable”; in [8] it was “Stable”; in data set [9] it was “Unstable”; in [12], “Unstable”; in [13] it was “Unstable”; in data set [14] it was “Unstable”. The Stability result in data set [15] and in data set [17] was “Unstable” throughout. In addition, the result in the data set listed under Homo sapiens [1], in the data set listed under Homo sapiens [11] and in the data set listed under Homo sapiens [2] was inactive. In addition, the figures for the Retention_time in [10], in data set [18] and in [19] were 11.4 min, 9.5 min and 8.2 min, respectively. Also, in data set [16], the solubility entry is recorded as “Insoluble”.
As to `CCOC(=O)N1CCN(C(c2ccccn2)c2c(C)[nH]c3ccccc23)CC1` (stereo not drawn), the outcome in the data set filed under Homo sapiens [1] and in the data set listed under Homo sapiens [2] was inactive.
